{"source": "patent US20080311126A1", "about": "“Antisense Oligonucleotides Directed to Ribonucleotide Reducatase R2 and Uses Thereof in Combination Therapies for the Treatment of Cancer” (Genesense Technologies, Inc, priority 2004, published 2008)", "format_in_all_cases": "in vivo", "key": {"[1]": {"system": "MDA-MB-231 human breast cancer cells", "assay": "MDA-MB-231 breast tumour xenograft in CD-1 nude mice", "experimental": "MDA-MB-231 human breast cancer cells (1×10^7 cells in 100 μl of PBS) were subcutaneously injected into the right flank of 6-7 weeks old female CD-1 nude mice. After the size of tumour reached an approximate volume of 100 mm^3, 5 days post tumour cell injection, SEQ ID NO:1, or the scrambled control oligonucleotide (SEQ ID NO:3) were administered by bolus infusion into the tail vein every other day at 10 mg/kg. Control animals received saline alone for the same period. Antitumour effect of SEQ ID NO:1 was further compared to that of taxol or doxorubicin alone or in combination. Taxol was administered intravenously once a week at a dose of 10 mg/kg for three (FIG. 17A) or four weeks (FIG. 17C). Doxorubicin was administered intravenously once a week at a dose of 5 mg/kg for first three weeks (FIG. 17A) or for two weeks (FIG. 17C). All treatments were stopped at day 33 (FIG. 17A) or at day 26 (FIG. 17C), respectively. A day after the last treatment, tumours were excised from the animals and their weights were measured. […] In FIG. 17C, antitumour activities were estimated by the inhibition of tumour volume, which was measured with calipers. Each point represents mean tumour volume calculated from 10 animals per experimental group."}, "[2]": {"system": "Caki-1 human renal carcinoma", "assay": "Caki-1 renal tumour xenograft in SCID mice, SEQ ID NO:1 and interferon alpha", "details": "Example 4", "experimental": "Cell Line: Human renal carcinoma cell line (Caki-1) was grown as monolayer culture in Minimum essential medium (α-MEM) supplemented with 10% fetal bovine serum (FEBS), 0.1 mM non-essential amino acid, 1.0 mM sodium pyruvate, 100 U/ml penicillin, 100 μg/ml streptomycin and 0.25 μg/ml amphotericin B and 2 mM L-alanyl-L-glutamine at 37° C. in an atmosphere of 5% CO2 in air. The tumour cells were routinely subcultured twice weekly by trypsin-EDTA treatment. The cells were harvested from subconfluent logarithmically growing culture by treatment with trypsin-EDTA and counted for tumour inoculation.\nTumour Inoculation: An acclimation period of at least 7 days was allowed between animal receipt and commencement of tumour inoculation. When the female SCID mice were 6-7 weeks of age (20-25 g), each mouse was subcutaneously (s.c.) injected with 5×10^6 Caki-1 human renal carcinoma cells in 0.1 ml of PBS at the right flank of the mice to induce tumour growth.\nDose-Preparation and Treatment: The dose for SEQ ID NO:1 was formulated using the following procedure. From a concentrated stock solution (usually prepared in ddH2O at a concentration of 50 mg/ml and kept at −80° C.), SEQ ID NO:1 was diluted with saline to achieve a final target concentration of 1 or 2.5 mg/ml on the first day of dosing. Enough SEQ ID NO:1 was diluted so that the compound could be administered by bolus infusion into the tail vein every other day for the duration of the experiment. Recombinant interferon alfa-2b (Intron A™) was utilized according to the dose and treatment schedules below. The treatments were started 7 days after the tumour cell inoculation when the tumour size reached an approximate volume of 125 mm^3. Each treatment group contained 10 tumour-bearing mice. Routes of administration are indicated as follows: intravenous (i.v.) and intratumoural (i:t.).\nGroups and Treatments: The following treatment groups were evaluated: • 1. Saline treated group-1: saline 0.1 ml/mouse/48 hours, i.v., n=10 • 2. Saline treated group-2: saline 0.05 ml/mouse/5 days/week, i.t., n=10 • 3. […] Intron A 10^3 unit/5 days/week treated group: 10^3 unit Intron A in 0.05 ml saline, i.t., n=10 • 6. Intron A 10^5 unit/5 days/week treated group: 10^5 unit Intron A in 0.05 ml saline, i.t., n=10 • 7. SEQ ID NO:1 1 mg/kg Plus Intron A 10^3 treated group: “3+5”, n=10 • 8. SEQ ID NO:1 1 mg kg Plus Intron A 10^5 treated group: “3+6”, n=10 • 9. SEQ ID NO:1 2.5 mg/kg Plus Intron A […], n=10 • 10. SEQ ID NO:1 2.5 mg/kg Plus Intron A 10^5 treated group: “4+6”, n=10\nMice received 25 treatments with SEQ ID NO:1 and 30 treatments with Intron A. The dosing schedule for Intron A was: treatment with Intron A for 3 consecutive weeks, 1 week off, and treatment with Intron A again for another 3 consecutive weeks. The dosing schedule for SEQ ID NO:1 was treatment with SEQ ID NO:1 every other day for the duration of the experiment.\nEndpoints: The effects of SEQ ID NO:1 and Intron A on tumour growth were determined. Tumour sizes were measured every week from day 7 after the tumour cell inoculation in two dimensions using a caliper, and the volume was expressed in mm^3 using the formula: V=0.5 a×b^2, where a and b are the long and short diameters of the tumour, respectively. Mean tumour volumes calculated from each measurement were then plotted in a standard graph to compare the anti-tumour efficacy to that of controls. A day after the last treatment, tumours were excised from the animals and their weights were measured.\nA second independent in vivo study was conducted as described in Example 1 utilizing SCID mice (female, 6 weeks old) and Caki-1 (human renal carcinoma cell line) to test the efficacy of SEQ ID NO:1 in combination with IFN alpha Briefly, 5×10^6 Caki-1 human renal carcinoma cells in 0.1 ml of PBS were injected subcutaneously at the right flank of the mice to induce tumour growth. Treatments started on the seventh day after tumour cell injection. […]"}, "[3]": {"system": "HT-29 human colon cancer cells", "assay": "HT-29 colon tumour xenograft in CD-1 nude mice", "experimental": "HT-29 human colon cancer cells (3×10^6 cells in 100 μl of PBS) were subcutaneously injected into the right flank of 6-7 weeks old female CD-1 nude mice. After the size of tumour reached an approximate volume of 50 mm^3, 4 days post tumour cell injection, mitomycin C was administered by bolus infusion into the tail vein at days 4, 11 and 18 with a dose of 3.5 mg/kg/week. Antitumour effect of mitomycin C was further compared to that of SEQ ID NO:1 in combination with mitomycin C. SEQ ID NO:1 was administered by bolus infusion into the tail vein every day at 6 mg/kg and mitomycin C was administered intravenously at days 4, 11 and 18 with a dose of 3.5 mg/kg/week, one hour after the treatments with SEQ ID NO:1. Control animals received saline alone for the same period as SEQ ID NO:1. All treatments were stopped at day 22. A day after the last treatment, tumours were excised from the animals and their weights were measured.\nHT-29 human colon cancer cells (3×10^6 cells in 100 μl of PBS) were subcutaneously injected into the right flank of 5-6 week old female CD-1 nude mice. After the size of tumour reached an approximate volume of 100 mm^3, 7 days post tumour cell injection, SEQ ID NO:1 was administered by bolus infusion into the tail vein every other day at 10 mg/kg. Control animals received saline alone for the same period. Antitumour effect of SEQ ID NO:1 was further compared to that of CPT-11 alone or that of SEQ ID NO:1 in combination with CPT-11. CPT-11 was administered intraperitoneally for 5 days in a row from […] with a dose of 20 mg/kg in 100 μl saline. All treatments were stopped at day 32. A day after the last treatment, tumours were excised from the animals and their weights were measured.\nHT-29 human colon cancer cells (3×10^6 cells in 100 μl of PBS) were subcutaneously injected into the right flank of 6-7 week old female CD-1 nude mice. Treatments started at day 5 post tumour cell injection, SEQ ID NO:1 and 5-FU were administered as outlined below: • Groups and treatment: • Group 1. Saline treated group: saline:0.1 ml/2 days, i.v.; • Group 2. SEQ ID NO:1 treated group: 10 mg/kg/2 days in 100 μL saline, i.v.; • Group 3. 5-FU treated group:13 mg/kg/5 days/week (one week on and one week off), i.v.; • Group 4. SEQ ID NO:1 plus 5-FU treated group.\nHT-29 human colon cancer cells (3×10^6 cells in 100 μl of PBS) were subcutaneously injected into the right flank of 5-6 week old female CD-1 nude mice. Treatments started 4 days post tumour cell injection, SEQ ID NO: 1 and Capecitabine were administered as outlined below: • Group and Treatment: • Group 1: treated with 0.2 ml vehicle solution for capecitabine, o.p.; • Group 2: treated with 0.1 ml saline, i.v.; • Group 3: treated with 359 mg/kg/day×5/w Capecitabine in 0.2 ml vehicle solution, o.p.; • Group 4: treated with 10 mg/kg/2 days SEQ ID NO:1 in 0.1 ml saline i.v.; • Group 5: treated with 10 mg/kg/2 days SEQ ID NO:1 in 0.1 ml saline, i.v. plus 359 mg/kg/day×5/w capecitabine in 0.2 ml vehicle solution, o.p."}, "[4]": {"system": "Hela S3 human cervix epitheloid carcinoma cells", "assay": "Hela S3 hydroxyurea resistant cervix carcinoma xenograft in SCID mice", "experimental": "Hela S3 human cervix epitheloid carcinoma cells (5×10^5 cells in 100 μl of PBS) were subcutaneously injected into the right flank of 6-7 weeks old female SCID mice. Hela S3 is a hydroxyurea resistant cell line. After the size of tumour reached an approximate volume of 100 mm^3, 3 days post tumour cell injection, SEQ ID NO:1 was administered by bolus infusion into the tail vein every other day at 10 mg/kg 6 times. Control animals received saline alone for the same period. Antitumour effect of SEQ ID NO:1 was further compared to that of Hydroxyurea or Cisplatin alone or in combination. Hydroxyurea was administered intraperitoneally every day at a dose of 250 mg/kg for 10 days. Cisplatin was administered intravenously once a week for three weeks at a dose of 4 mg/kg. Antitumour activities were estimated by the inhibition of tumour volume, which was measured with caliper. Each point represents mean tumour volume calculated from 10 animals per experimental group. […] As expected, treatment with Hydroxyurea during the same period was ineffective against Hydroxyurea-resistant tumour."}}, "note": "“Also recorded” adds a separate entry of the source.", "data": [{"compound": "COc1cccc2c1C(=O)c1c(O)c3c(c(O)c1C2=O)C[C@@](O)(C(=O)CO)C[C@@H]3O[C@H]1C[C@H](N)[C@H](O)[C@H](C)O1", "note": "[Doxorubicin]", "values": [{"measurement": "Tumour weight as % of saline control", "setting": "[1]; MDA-MB-231 (breast), Mouse CD-1", "value": 41, "unit": "%"}]}, {"compound": "ACGCACTCAGCTAGTGACAC (listed as DNA, chemistry not given here) [SEQ ID NO:3, reference compound]", "values": [{"measurement": "effect on the efficacy of Intron A", "setting": "[2]; SEQ ID NO:3 2.5 mg/kg plus Intron A 10^5", "value": "did not improve the efficacy of Intron A"}, {"measurement": "anti-tumour efficacy (tumour volume, tumour weight)", "setting": "[2]; oligonucleotide 2.5 mg/kg every 2 days i.v., Intron A 10^5 unit 5 days/week i.t.", "value": "no efficacy as a monotherapy"}, {"measurement": "antitumour effect (tumour weight, tumour volume)", "setting": "[1]; oligonucleotide 10 mg/kg every other day i.v., taxol 10 mg/kg, doxorubicin 5 mg/kg i.v. once a week", "value": "no significant anti-tumour activity as a monotherapy; also recorded: does not cooperate with doxorubicin"}]}, {"compound": "CO[C@@]12[C@H](COC(N)=O)C3=C(C(=O)C(C)=C(N)C3=O)N1C[C@@H]1N[C@@H]12", "note": "[Mitomycin C, reference compound]", "values": [{"measurement": "antitumour effect (tumour weight)", "setting": "[3]; Example 12.1, mitomycin C 3.5 mg/kg/week i.v., SEQ ID NO:1 6 mg/kg every day i.v.", "value": "significant delay of tumour growth"}, {"measurement": "Tumour weight as % of saline control", "setting": "[3]; HT-29 (colon), Mouse CD-1, Mitomycin C study", "value": 15, "unit": "%"}]}, {"compound": "NC(=O)NO", "note": "[Hydroxyurea (HU), Hydroxyurea, reference compound]", "values": [{"measurement": "Tumour weight as % of saline control", "setting": "[4]; Hela S3 (cervix), hydroxyurea resistance, SCID", "value": 92, "unit": "%"}, {"measurement": "antitumour effect (tumour volume)", "setting": "[4]; SEQ ID NO:1 10 mg/kg 6 times, Hydroxyurea 250 mg/kg i.p. 10 days, Cisplatin 4 mg/kg i.v. weekly", "value": "ineffective"}]}]}
